Source: patent US8377975B2, “Oxadiazole derivatives for the treatment of diabetes” (Merck Patent Gesellschaft Mit Beschrankter Haftung, priority 2008, dated 2013)

Assays:
Type in all cases: biochemical
SGK1 = biological target: T1, SGK1 (Homo sapiens, UniProt O00141); assay: SGK1 enzyme inhibition (filter binding method); conditions: Target SGK1
T1 sequence (O00141 1-431): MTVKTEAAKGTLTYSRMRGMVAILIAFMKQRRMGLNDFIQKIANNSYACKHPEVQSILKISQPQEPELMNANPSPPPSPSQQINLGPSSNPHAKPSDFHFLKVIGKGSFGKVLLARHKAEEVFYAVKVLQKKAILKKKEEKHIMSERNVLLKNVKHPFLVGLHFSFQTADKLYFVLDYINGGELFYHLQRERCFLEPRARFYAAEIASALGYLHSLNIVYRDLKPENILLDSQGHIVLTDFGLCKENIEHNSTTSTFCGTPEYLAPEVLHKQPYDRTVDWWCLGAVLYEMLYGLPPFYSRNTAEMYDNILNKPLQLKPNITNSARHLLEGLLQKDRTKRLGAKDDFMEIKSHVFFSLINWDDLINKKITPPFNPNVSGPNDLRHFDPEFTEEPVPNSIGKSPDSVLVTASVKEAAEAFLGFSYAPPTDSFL
Excerpt: Other assays are known from the literature and could readily be performed by the person skilled in the art (see, for example, Dhanabal et al., Cancer Res. 59:189-197; Xin at al., J. Biol. Chem. 274:9116-9121; Sheu et al., Anticancer Res. 18:4435-4441; Ausprunk et al., Dev. Biol. 38:237-248; Gimbrone et al., J. Natl. Cancer Inst. 52:413-427; Nicosia at al., In Vitro 18:538- 549). The inhibition of SGK1 protein kinase can be determined in the filter binding method.

SGK2 = biological target: T2, SGK2 (Homo sapiens, UniProt Q9HBY8); assay: SGK2 enzyme inhibition; conditions: Target SGK2
T2 sequence (Q9HBY8 1-367): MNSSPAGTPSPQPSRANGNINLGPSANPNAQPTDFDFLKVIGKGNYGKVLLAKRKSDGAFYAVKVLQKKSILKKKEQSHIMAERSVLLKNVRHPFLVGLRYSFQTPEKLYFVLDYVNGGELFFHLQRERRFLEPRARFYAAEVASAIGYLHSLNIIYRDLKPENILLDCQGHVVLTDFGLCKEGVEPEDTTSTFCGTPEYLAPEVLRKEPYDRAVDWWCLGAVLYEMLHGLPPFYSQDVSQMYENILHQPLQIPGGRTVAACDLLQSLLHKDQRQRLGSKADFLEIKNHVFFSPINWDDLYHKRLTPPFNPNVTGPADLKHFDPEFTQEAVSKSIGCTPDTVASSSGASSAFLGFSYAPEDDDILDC

SGK3 = biological target: T3, SGK3 (Homo sapiens, UniProt Q96BR1); assay: SGK3 enzyme inhibition; conditions: Target SGK3
T3 sequence (Q96BR1 1-496): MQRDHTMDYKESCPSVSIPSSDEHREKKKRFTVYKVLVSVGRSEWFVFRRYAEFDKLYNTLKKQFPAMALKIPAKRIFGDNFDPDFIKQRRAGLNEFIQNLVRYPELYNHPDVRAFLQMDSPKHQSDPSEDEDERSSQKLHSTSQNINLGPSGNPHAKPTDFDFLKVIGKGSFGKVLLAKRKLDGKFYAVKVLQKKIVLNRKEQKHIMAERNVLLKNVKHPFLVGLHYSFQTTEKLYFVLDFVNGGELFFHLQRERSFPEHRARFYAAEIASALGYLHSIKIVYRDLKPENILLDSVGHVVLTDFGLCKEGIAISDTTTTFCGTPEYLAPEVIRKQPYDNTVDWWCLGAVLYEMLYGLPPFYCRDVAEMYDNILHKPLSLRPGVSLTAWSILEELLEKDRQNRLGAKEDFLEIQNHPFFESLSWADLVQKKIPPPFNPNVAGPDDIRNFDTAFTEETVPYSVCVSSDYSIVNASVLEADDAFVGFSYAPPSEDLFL

GSK3-beta = GSK3-beta (Homo sapiens, UniProt P49841); assay: GSK3-beta enzyme inhibition; conditions: Target GSK3-beta
Chain of GSK3-beta (P49841 whole entry): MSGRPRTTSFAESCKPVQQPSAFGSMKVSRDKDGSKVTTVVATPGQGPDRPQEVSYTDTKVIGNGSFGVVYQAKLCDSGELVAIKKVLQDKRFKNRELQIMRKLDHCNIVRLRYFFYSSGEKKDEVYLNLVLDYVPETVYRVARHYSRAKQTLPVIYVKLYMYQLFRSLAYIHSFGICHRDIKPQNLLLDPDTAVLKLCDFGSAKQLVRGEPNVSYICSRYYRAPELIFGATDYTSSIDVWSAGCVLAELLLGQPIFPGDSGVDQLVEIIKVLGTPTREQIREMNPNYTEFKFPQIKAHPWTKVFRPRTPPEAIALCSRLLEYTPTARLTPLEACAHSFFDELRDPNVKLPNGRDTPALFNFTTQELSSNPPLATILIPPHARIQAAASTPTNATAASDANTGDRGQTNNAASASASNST

IC50 (SGK1) [nM] | IC50 (SGK2) [nM] | IC50 (SGK3) [nM] | IC50 (GSK3-beta) [nM] | SMILES
1 to 100 | 1 to 100 | 1 to 100 | 1 to 100 | CCc1c(-c2nnc(NCc3cccc(F)c3)o2)ccc(O)c1C [Compound A1, 3-ethyl-4-[5-(3-fluorobenzylamino)-1,3,4-oxadiazol-2-yl]-2-methylphenol]
1 to 100 |  |  | 100 to 10000 | CCc1c(-c2nnc(NCc3cccc(OC)c3)o2)ccc(O)c1C [Compound A2]
1 to 100 |  |  | 1 to 100 | CCc1c(-c2nnc(N[C@H](C)c3cccc(OC)c3)o2)ccc(O)c1C [Compound A3]
100 to 10000 |  |  |  | CCc1c(-c2nnc(N)o2)ccc(O)c1C [Compound A4, 4-(5-amino-1,3,4-oxadiazol-2-yl)-3-ethyl-2-methylphenol]
> 10000 |  |  |  | Oc1ccc(-c2nnc(NCc3cccc(F)c3)o2)nc1 [Compound A5, 6-[5-(3-fluorobenzylamino)-1,3,4-oxadiazol-2-yl]pyridin-3-ol]
> 10000 |  |  |  | Oc1ccc(-c2nnc(NCc3cccc(F)c3)o2)c(F)c1F [Compound A6, 2,3-difluoro-4-[5-(3-fluorobenzylamino)-1,3,4-oxadiazol-2-yl]phenol]
